# Assay results as given in PubChem BioAssay (NCI).
#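 These data come from cells grown in 96-well plates and exposed to compound for 48 hours at five concentrations. TGI denotes the concentration required for complete inhibition of growth.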
# Tested on: RXF-631 renal
# Experiment: DTP human tumour cell line panel, 48 h
row,Compound,TGI
1,COC1=CC(=O)c2c(ccc3ncnc(N)c23)C1=O,16.4 µM
2,O=C1O[C@@H](c2ccccc2)C[C@H]1CN1CCOCC1,> 100 µM

# Tested on: KM12 colon
# Experiment: DTP human tumour cell line panel, 48 h
row,Compound,TGI
1,CCNCCCCNCCCCNCCCCNCCCCNCC,> 100 µM
2,COC1=CC(=O)c2c(ccc3ncnc(N)c23)C1=O,11.3 µM
3,O=C1O[C@@H](c2ccccc2)C[C@H]1CN1CCOCC1,> 100 µM
4,O=C1C=CC(=O)c2c(O)ccc(O)c21,13 µM

# Tested on: MOLT-4 leukemia
# Experiment: DTP human tumour cell line panel, 48 h
row,Compound,TGI
1,CCNCCCCNCCCCNCCCCNCCCCNCC,> 100 µM
2,COC1=CC(=O)c2c(ccc3ncnc(N)c23)C1=O,1.5 µM
3,O=C1O[C@@H](c2ccccc2)C[C@H]1CN1CCOCC1,> 100 µM
4,O=C1C=CC(=O)c2c(O)ccc(O)c21,4.45 µM

# Tested on: SK-MEL-5 melanoma
# Experiment: DTP human tumour cell line panel, 48 h
row,Compound,TGI
1,CCNCCCCNCCCCNCCCCNCCCCNCC,> 100 µM
2,COC1=CC(=O)c2c(ccc3ncnc(N)c23)C1=O,3.12 µM
3,O=C1O[C@@H](c2ccccc2)C[C@H]1CN1CCOCC1,> 100 µM
4,O=C1C=CC(=O)c2c(O)ccc(O)c21,6.08 µM

# Tested on: U251 CNS
# Experiment: DTP human tumour cell line panel, 48 h
row,Compound,TGI
1,CCNCCCCNCCCCNCCCCNCCCCNCC,> 100 µM
2,COC1=CC(=O)c2c(ccc3ncnc(N)c23)C1=O,3.39 µM
3,O=C1O[C@@H](c2ccccc2)C[C@H]1CN1CCOCC1,> 100 µM
4,O=C1C=CC(=O)c2c(O)ccc(O)c21,14.8 µM

# Tested on: OVCAR-5 ovarian
# Experiment: DTP human tumour cell line panel, 48 h
row,Compound,TGI
1,CCNCCCCNCCCCNCCCCNCCCCNCC,> 100 µM
2,COC1=CC(=O)c2c(ccc3ncnc(N)c23)C1=O,3.81 µM
3,O=C1O[C@@H](c2ccccc2)C[C@H]1CN1CCOCC1,> 100 µM
4,O=C1C=CC(=O)c2c(O)ccc(O)c21,13.1 µM

# Tested on: MALME-3M melanoma
# Experiment: DTP human tumour cell line panel, 48 h
row,Compound,TGI
1,CCNCCCCNCCCCNCCCCNCCCCNCC,31.5 µM
2,COC1=CC(=O)c2c(ccc3ncnc(N)c23)C1=O,5.43 µM
3,O=C1O[C@@H](c2ccccc2)C[C@H]1CN1CCOCC1,> 100 µM
4,O=C1C=CC(=O)c2c(O)ccc(O)c21,2.39 µM

# Tested on: M14 melanoma
# Experiment: DTP human tumour cell line panel, 48 h
row,Compound,TGI
1,CCNCCCCNCCCCNCCCCNCCCCNCC,> 100 µM
2,COC1=CC(=O)c2c(ccc3ncnc(N)c23)C1=O,3.38 µM
3,O=C1O[C@@H](c2ccccc2)C[C@H]1CN1CCOCC1,> 100 µM
4,O=C1C=CC(=O)c2c(O)ccc(O)c21,1.32 µM

# Tested on: UACC-257 melanoma
# Experiment: DTP human tumour cell line panel, 48 h
row,Compound,TGI
1,CCNCCCCNCCCCNCCCCNCCCCNCC,81.3 µM
2,COC1=CC(=O)c2c(ccc3ncnc(N)c23)C1=O,3.69 µM
3,O=C1O[C@@H](c2ccccc2)C[C@H]1CN1CCOCC1,> 100 µM
4,O=C1C=CC(=O)c2c(O)ccc(O)c21,2.45 µM

# Tested on: XF 498 CNS
# Experiment: DTP human tumour cell line panel, 48 h
row,Compound,TGI
1,CCNCCCCNCCCCNCCCCNCCCCNCC,> 100 µM
2,O=C1O[C@@H](c2ccccc2)C[C@H]1CN1CCOCC1,> 100 µM
3,O=C1C=CC(=O)c2c(O)ccc(O)c21,3.07 µM

# Tested on: HOP-62 NSCLC
# Experiment: DTP human tumour cell line panel, 48 h
row,Compound,TGI
1,CCNCCCCNCCCCNCCCCNCCCCNCC,> 100 µM
2,COC1=CC(=O)c2c(ccc3ncnc(N)c23)C1=O,6.54 µM
3,O=C1O[C@@H](c2ccccc2)C[C@H]1CN1CCOCC1,> 100 µM
4,O=C1C=CC(=O)c2c(O)ccc(O)c21,19.3 µM

# Tested on: HT29 colon
# Experiment: DTP human tumour cell line panel, 48 h
row,Compound,TGI
1,CCNCCCCNCCCCNCCCCNCCCCNCC,> 100 µM
2,COC1=CC(=O)c2c(ccc3ncnc(N)c23)C1=O,4.44 µM
3,O=C1O[C@@H](c2ccccc2)C[C@H]1CN1CCOCC1,> 100 µM
4,O=C1C=CC(=O)c2c(O)ccc(O)c21,5.68 µM

# Tested on: NCI-H460 lung
# Experiment: DTP human tumour cell line panel, 48 h
row,Compound,TGI
1,CCNCCCCNCCCCNCCCCNCCCCNCC,> 100 µM
2,COC1=CC(=O)c2c(ccc3ncnc(N)c23)C1=O,12.6 µM
3,O=C1O[C@@H](c2ccccc2)C[C@H]1CN1CCOCC1,> 100 µM
4,O=C1C=CC(=O)c2c(O)ccc(O)c21,9.79 µM

# Tested on: NCI-H522 lung
# Experiment: DTP human tumour cell line panel, 48 h
row,Compound,TGI
1,CCNCCCCNCCCCNCCCCNCCCCNCC,> 100 µM
2,COC1=CC(=O)c2c(ccc3ncnc(N)c23)C1=O,5.62 µM
3,O=C1O[C@@H](c2ccccc2)C[C@H]1CN1CCOCC1,> 100 µM
4,O=C1C=CC(=O)c2c(O)ccc(O)c21,1.16 µM

# Tested on: EKVX NSCLC
# Experiment: DTP human tumour cell line panel, 48 h
row,Compound,TGI
1,CCNCCCCNCCCCNCCCCNCCCCNCC,> 100 µM
2,COC1=CC(=O)c2c(ccc3ncnc(N)c23)C1=O,4.03 µM
3,O=C1O[C@@H](c2ccccc2)C[C@H]1CN1CCOCC1,> 100 µM
4,O=C1C=CC(=O)c2c(O)ccc(O)c21,7.4 µM

# Tested on: HCC-2998 colon
# Experiment: DTP human tumour cell line panel, 48 h
row,Compound,TGI
1,CCNCCCCNCCCCNCCCCNCCCCNCC,> 100 µM
2,COC1=CC(=O)c2c(ccc3ncnc(N)c23)C1=O,15.1 µM
3,O=C1O[C@@H](c2ccccc2)C[C@H]1CN1CCOCC1,> 100 µM
4,O=C1C=CC(=O)c2c(O)ccc(O)c21,10.5 µM

# Tested on: DLD-1 colon
# Experiment: DTP human tumour cell line panel, 48 h
row,Compound,TGI
1,CCNCCCCNCCCCNCCCCNCCCCNCC,> 100 µM
2,COC1=CC(=O)c2c(ccc3ncnc(N)c23)C1=O,4.44 µM
3,O=C1O[C@@H](c2ccccc2)C[C@H]1CN1CCOCC1,> 100 µM
4,O=C1C=CC(=O)c2c(O)ccc(O)c21,0.891 µM

# Tested on: HOP-92 NSCLC
# Experiment: DTP human tumour cell line panel, 48 h
row,Compound,TGI
1,CCNCCCCNCCCCNCCCCNCCCCNCC,> 100 µM
2,COC1=CC(=O)c2c(ccc3ncnc(N)c23)C1=O,4 µM
3,O=C1O[C@@H](c2ccccc2)C[C@H]1CN1CCOCC1,> 100 µM
4,O=C1C=CC(=O)c2c(O)ccc(O)c21,3.21 µM

# Tested on: OVCAR-8 ovarian
# Experiment: DTP human tumour cell line panel, 48 h
row,Compound,TGI
1,CCNCCCCNCCCCNCCCCNCCCCNCC,> 100 µM
2,COC1=CC(=O)c2c(ccc3ncnc(N)c23)C1=O,7.59 µM
3,O=C1O[C@@H](c2ccccc2)C[C@H]1CN1CCOCC1,> 100 µM
4,O=C1C=CC(=O)c2c(O)ccc(O)c21,2.05 µM

# Tested on: SNB-19 CNS
# Experiment: DTP human tumour cell line panel, 48 h
row,Compound,TGI
1,CCNCCCCNCCCCNCCCCNCCCCNCC,> 100 µM
2,COC1=CC(=O)c2c(ccc3ncnc(N)c23)C1=O,5.47 µM
3,O=C1C=CC(=O)c2c(O)ccc(O)c21,16.6 µM

# Tested on: CCRF-CEM leukemia
# Experiment: DTP human tumour cell line panel, 48 h
row,Compound,TGI
1,CCNCCCCNCCCCNCCCCNCCCCNCC,> 100 µM
2,COC1=CC(=O)c2c(ccc3ncnc(N)c23)C1=O,1.95 µM
3,O=C1O[C@@H](c2ccccc2)C[C@H]1CN1CCOCC1,> 100 µM
4,O=C1C=CC(=O)c2c(O)ccc(O)c21,0.966 µM

# Tested on: SNB-75 CNS
# Experiment: DTP human tumour cell line panel, 48 h
row,Compound,TGI
1,CCNCCCCNCCCCNCCCCNCCCCNCC,78.4 µM
2,COC1=CC(=O)c2c(ccc3ncnc(N)c23)C1=O,6.62 µM
3,O=C1O[C@@H](c2ccccc2)C[C@H]1CN1CCOCC1,> 100 µM
4,O=C1C=CC(=O)c2c(O)ccc(O)c21,6.98 µM

# Tested on: UO-31 renal
# Experiment: DTP human tumour cell line panel, 48 h
row,Compound,TGI
1,CCNCCCCNCCCCNCCCCNCCCCNCC,> 100 µM
2,COC1=CC(=O)c2c(ccc3ncnc(N)c23)C1=O,5.09 µM
3,O=C1O[C@@H](c2ccccc2)C[C@H]1CN1CCOCC1,> 100 µM
4,O=C1C=CC(=O)c2c(O)ccc(O)c21,4.69 µM

# Tested on: DMS 114 small cell lung
# Experiment: DTP human tumour cell line panel, 48 h
row,Compound,TGI
1,CCNCCCCNCCCCNCCCCNCCCCNCC,> 100 µM
2,COC1=CC(=O)c2c(ccc3ncnc(N)c23)C1=O,3.43 µM
3,O=C1O[C@@H](c2ccccc2)C[C@H]1CN1CCOCC1,> 100 µM
4,O=C1C=CC(=O)c2c(O)ccc(O)c21,5.27 µM

# Tested on: SR leukemia
# Experiment: DTP human tumour cell line panel, 48 h
row,Compound,TGI
1,CCNCCCCNCCCCNCCCCNCCCCNCC,> 100 µM
2,COC1=CC(=O)c2c(ccc3ncnc(N)c23)C1=O,0.631 µM
3,O=C1C=CC(=O)c2c(O)ccc(O)c21,1.75 µM

# Tested on: SK-MEL-2 melanoma
# Experiment: DTP human tumour cell line panel, 48 h
row,Compound,TGI
1,CCNCCCCNCCCCNCCCCNCCCCNCC,> 100 µM
2,COC1=CC(=O)c2c(ccc3ncnc(N)c23)C1=O,7.08 µM
3,O=C1O[C@@H](c2ccccc2)C[C@H]1CN1CCOCC1,> 100 µM
4,O=C1C=CC(=O)c2c(O)ccc(O)c21,17.4 µM

# Tested on: PC-3 prostate
# Experiment: DTP human tumour cell line panel, 48 h
row,Compound,TGI
1,CCNCCCCNCCCCNCCCCNCCCCNCC,> 100 µM
2,COC1=CC(=O)c2c(ccc3ncnc(N)c23)C1=O,6.53 µM
3,O=C1C=CC(=O)c2c(O)ccc(O)c21,29.5 µM

# Tested on: NCI-H23 lung
# Experiment: DTP human tumour cell line panel, 48 h
row,Compound,TGI
1,CCNCCCCNCCCCNCCCCNCCCCNCC,> 100 µM
2,COC1=CC(=O)c2c(ccc3ncnc(N)c23)C1=O,3.76 µM
3,O=C1O[C@@H](c2ccccc2)C[C@H]1CN1CCOCC1,35.4 µM
4,O=C1C=CC(=O)c2c(O)ccc(O)c21,7.39 µM

# Tested on: IGROV1 ovarian
# Experiment: DTP human tumour cell line panel, 48 h
row,Compound,TGI
1,CCNCCCCNCCCCNCCCCNCCCCNCC,> 100 µM
2,COC1=CC(=O)c2c(ccc3ncnc(N)c23)C1=O,3.41 µM
3,O=C1O[C@@H](c2ccccc2)C[C@H]1CN1CCOCC1,> 100 µM
4,O=C1C=CC(=O)c2c(O)ccc(O)c21,15.5 µM

# Tested on: MDA-MB-435
# Experiment: DTP human tumour cell line panel, 48 h
row,Compound,TGI
1,CCNCCCCNCCCCNCCCCNCCCCNCC,38.6 µM
2,COC1=CC(=O)c2c(ccc3ncnc(N)c23)C1=O,0.646 µM
3,O=C1C=CC(=O)c2c(O)ccc(O)c21,13.1 µM

# Tested on: SW-620 colon
# Experiment: DTP human tumour cell line panel, 48 h
row,Compound,TGI
1,CCNCCCCNCCCCNCCCCNCCCCNCC,> 100 µM
2,COC1=CC(=O)c2c(ccc3ncnc(N)c23)C1=O,4.03 µM
3,O=C1O[C@@H](c2ccccc2)C[C@H]1CN1CCOCC1,> 100 µM
4,O=C1C=CC(=O)c2c(O)ccc(O)c21,1.1 µM

# Tested on: OVCAR-4 ovarian
# Experiment: DTP human tumour cell line panel, 48 h
row,Compound,TGI
1,CCNCCCCNCCCCNCCCCNCCCCNCC,> 100 µM
2,COC1=CC(=O)c2c(ccc3ncnc(N)c23)C1=O,1.28 µM
3,O=C1O[C@@H](c2ccccc2)C[C@H]1CN1CCOCC1,> 100 µM
4,O=C1C=CC(=O)c2c(O)ccc(O)c21,4.97 µM

# Tested on: K-562 leukemia
# Experiment: DTP human tumour cell line panel, 48 h
row,Compound,TGI
1,CCNCCCCNCCCCNCCCCNCCCCNCC,> 100 µM
2,COC1=CC(=O)c2c(ccc3ncnc(N)c23)C1=O,1.58 µM
3,O=C1O[C@@H](c2ccccc2)C[C@H]1CN1CCOCC1,> 100 µM
4,O=C1C=CC(=O)c2c(O)ccc(O)c21,> 25 µM

# Tested on: MDA-MB-231 breast
# Experiment: DTP human tumour cell line panel, 48 h
row,Compound,TGI
1,CCNCCCCNCCCCNCCCCNCCCCNCC,> 100 µM
2,COC1=CC(=O)c2c(ccc3ncnc(N)c23)C1=O,4.8 µM
3,O=C1C=CC(=O)c2c(O)ccc(O)c21,6.64 µM
